Measurements taken from EP4722207A1, “OXOISOINDOLINYL-SUBSTITUTED TETRAHYDROPYRIMIDINEDIONE DERIVATIVE AND USE THEREOF” (Gluetacs Therapeutics (Shanghai) Co., Ltd., priority 2023, dated 2024).

Experiments:
Assay type in all cases: cell-based
Details in all cases: compounds at 50 nM and 500 nM, 24 hours
CK1α = target: T1, CK1α (Homo sapiens, UniProt P48729+Q96SW2); assay: Western-blot assay, substrate protein degradation in hPBMCs: CK1α
T1 construct: effects of the compounds of the present disclosure on the expression of target proteins in cells; endogenous in cells; host or cells: human PBMCs (hPBMCs)
Description: (§1) Conventional Western blot assay was performed to evaluate the effects of the compounds of the present disclosure on the expression of target proteins in cells. • (1) Cell Seeding and Protein Harvesting: Human peripheral blood mononuclear cells (hPBMCs) at a density of 1x10^6 cells/mL were thawed according to the PBMC Recovery Protocol (Milecell Biotechnologies Inc, Shanghai). […] After 24 hours of compounds treatment, cells were harvested and lysed in RIPA protein lysate containing protease inhibitors on ice for 30 min, followed by centrifugation. The supernatant was aspirated as the extracted total cell protein. The protein concentration of the supernatant was determined using the conventional BCA (Bicinchoninic Acid) assay. • (2) To the collected supernatant, 5X SDS sample loading buffer was added, followed by denaturation at 95°C for 5 minutes. The denatured samples were then separated by SDS-PAGE electrophoresis on a polyacrylamide gel. Proteins were transferred to a nitrocellulose membrane (0.45 µm NC membrane), blocked with blocking buffer at room temperature for 1 hour, and subjected to antibody incubation and development procedures according to the antibody manufacturer's instructions (Cell Signaling Technology).
(§2) Half-Maximal Degradation Concentration value (the drug concentration required for degrading proteins by 50%, abbreviated as DC50) reads method: comparing the grayscale values of Western blot bands from drug-treated samples with those from blank DMSO-treated controls, and identifying the drug concentration range at which the grayscale value is half that of the DMSO-treated control bands.
(§3) DC50 values can be calculated using ImageJ software to measure grayscale values of Western blot bands from drug-treated samples. The concentration-response curve is fitted to estimate the drug concentration corresponding to half the grayscale value.
(§4) Target protein remaining (%) refers to the percentage of target protein remaining in cells after treatment with protein degrader compounds.
(§5) Calculation method for target protein remaining (%): Use ImageJ software to measure grayscale values of Western blot bands from drug (protein degrader)-treated samples. The grayscale value of drug-treated bands is divided by that of internal control protein bands, and the resulting quotient is normalized to obtain the relative percentage of remaining target protein after protein degrader treatment. Target protein degradation rate(%) = 1−target protein remaining(%). [formula]

IKZF2 = target: T2, IKZF2 (Homo sapiens, UniProt Q96SW2+Q9UKS7); assay: Western-blot assay, substrate protein degradation in hPBMCs: IKZF2
T2 construct: effects of the compounds of the present disclosure on the expression of target proteins in cells; endogenous in cells; host or cells: human PBMCs (hPBMCs)
Description: as §1, §2, §3, §4, §5

IKZF1 = target: T3, IKZF1 (Homo sapiens, UniProt Q13422+Q96SW2); assay: Western-blot assay, substrate protein degradation in hPBMCs: IKZF1
T3 construct: effects of the compounds of the present disclosure on the expression of target proteins in cells; endogenous in cells; host or cells: human PBMCs (hPBMCs)
Description: as §1, §2, §3, §4, §5

WEE1 = target: T4, WEE1 (Homo sapiens, UniProt P30291+Q96SW2); assay: Western-blot assay, substrate protein degradation in hPBMCs: WEE1
T4 construct: effects of the compounds of the present disclosure on the expression of target proteins in cells; endogenous in cells; host or cells: human PBMCs (hPBMCs)
Description: as §1, §2, §3, §4, §5

IKZF3 = target: T5, IKZF3 (Homo sapiens, UniProt Q96SW2+Q9UKT9); assay: Western-blot assay, substrate protein degradation in hPBMCs: IKZF3
T5 construct: effects of the compounds of the present disclosure on the expression of target proteins in cells; endogenous in cells; host or cells: human PBMCs (hPBMCs)
Description: as §1, §2, §3, §4, §5

GSPT1 = target: T6, GSPT1 (Homo sapiens, UniProt P15170+Q96SW2); assay: Western-blot assay, substrate protein degradation in hPBMCs: GSPT1
T6 construct: effects of the compounds of the present disclosure on the expression of target proteins in cells; endogenous in cells; host or cells: human PBMCs (hPBMCs)
Description: as §1, §2, §3, §4, §5

T4 sequence (P30291 whole entry): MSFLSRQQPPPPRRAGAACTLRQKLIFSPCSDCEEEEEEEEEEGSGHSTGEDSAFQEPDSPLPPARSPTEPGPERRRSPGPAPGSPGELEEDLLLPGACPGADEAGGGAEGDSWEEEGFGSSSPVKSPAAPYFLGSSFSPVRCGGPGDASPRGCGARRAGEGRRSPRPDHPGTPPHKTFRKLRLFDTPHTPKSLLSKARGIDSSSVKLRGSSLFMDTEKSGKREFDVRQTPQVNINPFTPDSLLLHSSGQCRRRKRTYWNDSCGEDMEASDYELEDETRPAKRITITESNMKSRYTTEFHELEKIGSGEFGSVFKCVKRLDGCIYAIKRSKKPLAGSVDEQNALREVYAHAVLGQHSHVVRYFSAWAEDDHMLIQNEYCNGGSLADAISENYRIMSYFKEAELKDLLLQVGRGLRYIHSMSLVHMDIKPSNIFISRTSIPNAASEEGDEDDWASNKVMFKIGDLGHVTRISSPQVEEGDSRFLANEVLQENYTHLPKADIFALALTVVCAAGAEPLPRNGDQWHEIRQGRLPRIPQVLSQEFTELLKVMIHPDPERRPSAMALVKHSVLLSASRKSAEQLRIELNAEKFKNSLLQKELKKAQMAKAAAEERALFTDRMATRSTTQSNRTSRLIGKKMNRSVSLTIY
T4 sequence (Q96SW2 whole entry): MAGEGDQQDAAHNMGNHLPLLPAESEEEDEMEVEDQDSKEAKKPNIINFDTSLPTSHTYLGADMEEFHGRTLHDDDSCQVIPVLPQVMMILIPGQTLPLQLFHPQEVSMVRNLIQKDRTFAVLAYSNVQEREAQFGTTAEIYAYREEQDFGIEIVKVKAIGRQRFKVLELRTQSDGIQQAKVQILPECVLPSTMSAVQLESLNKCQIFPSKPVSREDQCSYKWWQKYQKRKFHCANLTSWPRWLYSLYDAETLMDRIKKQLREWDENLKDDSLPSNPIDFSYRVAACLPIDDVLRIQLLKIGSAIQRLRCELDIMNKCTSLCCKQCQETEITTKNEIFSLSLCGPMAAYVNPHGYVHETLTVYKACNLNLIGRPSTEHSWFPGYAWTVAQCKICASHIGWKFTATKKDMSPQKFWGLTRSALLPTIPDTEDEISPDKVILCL
T4 sequence (Q16531 whole entry partner): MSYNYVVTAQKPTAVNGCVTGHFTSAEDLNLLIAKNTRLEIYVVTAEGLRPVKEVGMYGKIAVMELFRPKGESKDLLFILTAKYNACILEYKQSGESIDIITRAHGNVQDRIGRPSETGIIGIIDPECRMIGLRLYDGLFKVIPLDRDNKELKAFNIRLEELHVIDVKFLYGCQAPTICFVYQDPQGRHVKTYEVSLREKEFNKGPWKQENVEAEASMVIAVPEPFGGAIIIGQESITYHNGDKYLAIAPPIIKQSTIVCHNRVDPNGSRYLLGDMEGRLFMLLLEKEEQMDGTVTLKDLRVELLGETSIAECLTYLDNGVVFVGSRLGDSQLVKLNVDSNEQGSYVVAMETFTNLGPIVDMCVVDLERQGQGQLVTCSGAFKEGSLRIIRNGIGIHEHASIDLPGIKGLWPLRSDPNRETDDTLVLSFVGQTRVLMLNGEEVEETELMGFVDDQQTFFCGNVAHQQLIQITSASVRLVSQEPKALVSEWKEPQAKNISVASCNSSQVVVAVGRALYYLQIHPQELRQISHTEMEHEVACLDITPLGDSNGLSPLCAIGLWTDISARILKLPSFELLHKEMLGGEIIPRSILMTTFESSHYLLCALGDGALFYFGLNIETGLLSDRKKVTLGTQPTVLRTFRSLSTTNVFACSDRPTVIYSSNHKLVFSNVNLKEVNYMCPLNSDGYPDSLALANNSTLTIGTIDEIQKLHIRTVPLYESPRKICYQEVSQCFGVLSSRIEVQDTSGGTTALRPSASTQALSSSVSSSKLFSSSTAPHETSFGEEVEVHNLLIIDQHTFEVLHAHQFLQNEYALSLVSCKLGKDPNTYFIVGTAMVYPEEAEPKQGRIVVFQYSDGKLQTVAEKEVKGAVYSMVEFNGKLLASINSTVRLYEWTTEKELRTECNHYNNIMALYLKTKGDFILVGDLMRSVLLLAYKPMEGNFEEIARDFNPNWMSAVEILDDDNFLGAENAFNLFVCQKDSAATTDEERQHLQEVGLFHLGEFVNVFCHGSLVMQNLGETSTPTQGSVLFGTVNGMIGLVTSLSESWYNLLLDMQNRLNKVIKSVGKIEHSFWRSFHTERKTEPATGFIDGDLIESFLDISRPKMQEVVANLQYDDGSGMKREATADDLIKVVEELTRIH
T6 sequence (P15170 whole entry): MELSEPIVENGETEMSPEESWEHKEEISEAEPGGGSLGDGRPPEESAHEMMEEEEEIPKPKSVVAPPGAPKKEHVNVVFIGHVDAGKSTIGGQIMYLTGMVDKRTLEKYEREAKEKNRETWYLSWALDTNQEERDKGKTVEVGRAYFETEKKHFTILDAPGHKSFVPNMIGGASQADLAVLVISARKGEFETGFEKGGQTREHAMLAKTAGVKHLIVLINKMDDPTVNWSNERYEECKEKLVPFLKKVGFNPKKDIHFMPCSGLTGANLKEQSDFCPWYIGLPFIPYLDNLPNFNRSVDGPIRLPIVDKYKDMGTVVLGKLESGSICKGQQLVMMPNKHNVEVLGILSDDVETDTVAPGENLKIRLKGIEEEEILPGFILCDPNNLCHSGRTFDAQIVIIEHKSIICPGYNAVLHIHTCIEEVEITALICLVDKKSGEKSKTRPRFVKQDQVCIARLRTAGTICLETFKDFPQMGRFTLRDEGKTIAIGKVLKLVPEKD
T6 sequence (Q96SW2 whole entry): as the sequence (Q96SW2 whole entry) above
T6 sequence (Q16531 whole entry partner): as the sequence (Q16531 whole entry partner) above
T2 sequence (Q9UKS7 whole entry): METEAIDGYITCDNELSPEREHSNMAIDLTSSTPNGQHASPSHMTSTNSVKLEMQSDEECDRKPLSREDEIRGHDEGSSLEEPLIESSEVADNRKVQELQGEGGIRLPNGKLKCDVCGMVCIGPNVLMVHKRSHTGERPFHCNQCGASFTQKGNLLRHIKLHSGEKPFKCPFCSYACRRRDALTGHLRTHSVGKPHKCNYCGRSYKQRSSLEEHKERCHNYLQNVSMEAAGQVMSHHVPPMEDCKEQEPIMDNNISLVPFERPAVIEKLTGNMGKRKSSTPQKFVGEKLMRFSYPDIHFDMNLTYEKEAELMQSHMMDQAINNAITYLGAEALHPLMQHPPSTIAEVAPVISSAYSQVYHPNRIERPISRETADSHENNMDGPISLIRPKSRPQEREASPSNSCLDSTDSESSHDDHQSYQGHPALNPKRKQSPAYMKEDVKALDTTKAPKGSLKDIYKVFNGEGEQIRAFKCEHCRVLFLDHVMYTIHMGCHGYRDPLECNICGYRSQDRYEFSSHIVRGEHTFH
T2 sequence (Q96SW2 whole entry): as the sequence (Q96SW2 whole entry) above
T2 sequence (Q16531 whole entry partner): as the sequence (Q16531 whole entry partner) above
T5 sequence (Q9UKT9 whole entry): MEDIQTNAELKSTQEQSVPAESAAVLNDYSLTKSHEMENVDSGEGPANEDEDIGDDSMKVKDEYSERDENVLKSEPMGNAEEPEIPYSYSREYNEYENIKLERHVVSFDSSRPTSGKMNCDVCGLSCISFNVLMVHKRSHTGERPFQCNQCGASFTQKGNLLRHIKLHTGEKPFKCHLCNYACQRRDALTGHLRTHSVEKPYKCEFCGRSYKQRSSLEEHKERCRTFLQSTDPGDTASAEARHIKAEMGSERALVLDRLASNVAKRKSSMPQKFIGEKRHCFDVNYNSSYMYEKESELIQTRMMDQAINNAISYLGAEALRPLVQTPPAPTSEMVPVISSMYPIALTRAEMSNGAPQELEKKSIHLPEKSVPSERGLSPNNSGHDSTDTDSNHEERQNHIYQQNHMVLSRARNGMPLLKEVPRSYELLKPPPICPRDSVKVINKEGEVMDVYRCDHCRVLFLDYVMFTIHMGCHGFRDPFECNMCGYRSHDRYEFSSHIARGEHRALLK
T5 sequence (Q96SW2 whole entry): as the sequence (Q96SW2 whole entry) above
T5 sequence (Q16531 whole entry partner): as the sequence (Q16531 whole entry partner) above
T3 sequence (Q13422 whole entry): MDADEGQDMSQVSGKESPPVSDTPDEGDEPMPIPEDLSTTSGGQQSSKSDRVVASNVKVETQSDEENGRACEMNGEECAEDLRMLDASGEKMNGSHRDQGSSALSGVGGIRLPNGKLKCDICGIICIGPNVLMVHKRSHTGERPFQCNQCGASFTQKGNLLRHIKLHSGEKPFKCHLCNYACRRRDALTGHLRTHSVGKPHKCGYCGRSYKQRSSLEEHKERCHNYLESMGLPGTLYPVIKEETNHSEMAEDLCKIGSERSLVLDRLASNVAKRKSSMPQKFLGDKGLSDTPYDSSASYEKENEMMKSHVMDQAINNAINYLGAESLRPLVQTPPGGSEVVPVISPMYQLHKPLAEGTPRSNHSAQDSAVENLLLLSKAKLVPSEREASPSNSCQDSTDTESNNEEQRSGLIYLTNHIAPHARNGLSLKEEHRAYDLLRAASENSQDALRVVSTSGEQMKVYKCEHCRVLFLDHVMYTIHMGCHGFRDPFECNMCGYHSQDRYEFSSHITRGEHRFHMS
T3 sequence (Q96SW2 whole entry): as the sequence (Q96SW2 whole entry) above
T3 sequence (Q16531 whole entry partner): as the sequence (Q16531 whole entry partner) above

Row | Structure (SMILES) | CK1α substrate protein remaining % (CK1α) | IKZF2 substrate protein remaining % (IKZF2) | IKZF1 substrate protein remaining % (IKZF1) | WEE1 substrate protein remaining % (WEE1) | IKZF3 substrate protein remaining % (IKZF3) | GSPT1 substrate protein remaining % (GSPT1)
1 | O=C1CCN(N2Cc3cc(CN4CCN(c5ccc(F)cn5)CC4)ccc3C2=O)C(=O)N1 [GT-05131, 1-(5-((4-(5-fluoropyridin-2-yl)piperazin-1-yl)methyl)-1-oxoisoindolin-2-yl)dihydropyrimidine-2,4(1H,3H)-dione] | A ("A" is defined as 0% ≤ substrate protein remaining % ≤ 80%) | A ("A" is defined as 0% ≤ substrate protein remaining % ≤ 80%) | A ("A" is defined as 0% ≤ substrate protein remaining % ≤ 80%) | A ("A" is defined as 0% ≤ substrate protein remaining % ≤ 80%) | A ("A" is defined as 0% ≤ substrate protein remaining % ≤ 80%) | A ("A" is defined as 0% ≤ substrate protein remaining % ≤ 80%)
2 | O=C1CCN(N2Cc3cc(CN4C5CC4CN(c4cccc(Cl)c4Cl)C5)ccc3C2=O)C(=O)N1 [GT-05162, 1-(5-((3-(2,3-dichlorophenyl)-3,6-diazabicyclo[3.1.1]heptan-6-yl)methyl)-1-oxoisoindolin-2-yl)dihydropyrimidine-2,4(1H,3H)-dione] | B ("B" is defined as 80%< substrate protein remaining %≤ 100%) | B ("B" is defined as 80%< substrate protein remaining %≤ 100%) | B ("B" is defined as 80%< substrate protein remaining %≤ 100%) | B ("B" is defined as 80%< substrate protein remaining %≤ 100%) | A ("A" is defined as 0% ≤ substrate protein remaining % ≤ 80%) | A ("A" is defined as 0% ≤ substrate protein remaining % ≤ 80%)
3 | O=C1CCN(N2C(=O)c3ccc(CN4CCC(N(c5ccccc5)c5ccccc5)CC4)cc3C2=O)C(=O)N1 [GT-05177, 2-(2,4-dioxotetrahydropyrimidin-1(2H)-yl)-5-((4-(diphenylamino)piperidin-1-yl)methyl)isoindoline-1,3-dione] | B ("B" is defined as 80%< substrate protein remaining %≤ 100%) | B ("B" is defined as 80%< substrate protein remaining %≤ 100%) | B ("B" is defined as 80%< substrate protein remaining %≤ 100%) | B ("B" is defined as 80%< substrate protein remaining %≤ 100%) | B ("B" is defined as 80%< substrate protein remaining %≤ 100%) | A ("A" is defined as 0% ≤ substrate protein remaining % ≤ 80%)
4 | O=C1CCN(N2C(=O)c3ccc(CN4CCC(Nc5ccccc5-c5ccc(Cl)cc5)CC4)cc3C2=O)C(=O)N1 [GT-05179, 5-((4-((4'-chloro-[1,1'-biphenyl]-2-yl)amino)piperidin-1-yl)methyl)-2-(2,4-dioxotetrahydropyrimidin-1(2H)-yl)isoindoline-1,3-dione] | B ("B" is defined as 80%< substrate protein remaining %≤ 100%) | B ("B" is defined as 80%< substrate protein remaining %≤ 100%) | B ("B" is defined as 80%< substrate protein remaining %≤ 100%) | A ("A" is defined as 0% ≤ substrate protein remaining % ≤ 80%) | B ("B" is defined as 80%< substrate protein remaining %≤ 100%) | B ("B" is defined as 80%< substrate protein remaining %≤ 100%)
5 | CC1(C)CCC(CN2CCN(Cc3ccc4c(c3)C(=O)N(N3CCC(=O)NC3=O)C4=O)CC2)=C(c2ccc(Cl)cc2)C1 [GT-05180, 5-((4-((4'-chloro-5,5-dimethyl-3,4,5,6-tetrahydro-[1,1'-biphenyl]-2-yl)methyl)piperazin-1-yl)methyl)-2-(2,4-dioxotetrahydropyrimidin-1(2H)-yl)isoindoline-1,3-dione] | B ("B" is defined as 80%< substrate protein remaining %≤ 100%) | B ("B" is defined as 80%< substrate protein remaining %≤ 100%) | B ("B" is defined as 80%< substrate protein remaining %≤ 100%) | A ("A" is defined as 0% ≤ substrate protein remaining % ≤ 80%) | B ("B" is defined as 80%< substrate protein remaining %≤ 100%) | B ("B" is defined as 80%< substrate protein remaining %≤ 100%)
6 | O=C1CCN(N2C(=O)c3ccc(CN4CC=C(c5c[nH]c6ncccc56)CC4)cc3C2=O)C(=O)N1 [GT-05181, 5-((4-(1H-pyrrolo[2,3-b]pyridin-3-yl)-3,6-dihydropyridin-1(2H)-yl)methyl)-2-(2,4-dioxotetrahydropyrimidin-1(2H)-yl)isoindoline-1,3-dione] | B ("B" is defined as 80%< substrate protein remaining %≤ 100%) | B ("B" is defined as 80%< substrate protein remaining %≤ 100%) | B ("B" is defined as 80%< substrate protein remaining %≤ 100%) | A ("A" is defined as 0% ≤ substrate protein remaining % ≤ 80%) | B ("B" is defined as 80%< substrate protein remaining %≤ 100%) | B ("B" is defined as 80%< substrate protein remaining %≤ 100%)
7 | O=C1CCN(N2C(=O)c3ccc(CN4CC=C(c5cccc(Cl)c5Cl)CC4)cc3C2=O)C(=O)N1 [GT-05249, 5-((4-(2,3-dichlorophenyl)-3,6-dihydropyridin-1(2H)-yl)methyl)-2-(2,4-dioxotetrahydropyrimidin-1(2H)-yl)isoindoline-1,3-dione] | B ("B" is defined as 80%< substrate protein remaining %≤ 100%) | B ("B" is defined as 80%< substrate protein remaining %≤ 100%) | A ("A" is defined as 0% ≤ substrate protein remaining % ≤ 80%) | B ("B" is defined as 80%< substrate protein remaining %≤ 100%) | B ("B" is defined as 80%< substrate protein remaining %≤ 100%) | A ("A" is defined as 0% ≤ substrate protein remaining % ≤ 80%)
8 | O=C1CCN(N2C(=O)c3ccc(CN4CCC(c5cccc(Cl)c5Cl)CC4)cc3C2=O)C(=O)N1 [GT-05250, 5-((4-(2,3-dichlorophenyl)piperidin-1-yl)methyl)-2-(2,4-dioxotetrahydropyrimidin-1(2H)-yl)isoindoline-1,3-dione] | B ("B" is defined as 80%< substrate protein remaining %≤ 100%) | A ("A" is defined as 0% ≤ substrate protein remaining % ≤ 80%) | B ("B" is defined as 80%< substrate protein remaining %≤ 100%) | B ("B" is defined as 80%< substrate protein remaining %≤ 100%) | B ("B" is defined as 80%< substrate protein remaining %≤ 100%) | B ("B" is defined as 80%< substrate protein remaining %≤ 100%)
9 | O=C1CCN(N2C(=O)c3ccc(CN4C5CC4CN(c4cccc(Cl)c4Cl)C5)cc3C2=O)C(=O)N1 [GT-05251, 5-((3-(2,3-dichlorophenyl)-3,6-diazabicyclo[3.1.1]heptan-6-yl)methyl)-2-(2,4-dioxotetrahydropyrimidin-1(2H)-yl)isoindoline-1,3-dione] | B ("B" is defined as 80%< substrate protein remaining %≤ 100%) | A ("A" is defined as 0% ≤ substrate protein remaining % ≤ 80%) | B ("B" is defined as 80%< substrate protein remaining %≤ 100%) | B ("B" is defined as 80%< substrate protein remaining %≤ 100%) | B ("B" is defined as 80%< substrate protein remaining %≤ 100%) | B ("B" is defined as 80%< substrate protein remaining %≤ 100%)
